Test results reported in US11028127B2, “Peptides capable of reactivating p53 mutants” (Yeda Research and Development Co. Ltd., priority 2013, dated 2021).
Where two headings read alike, the source gives them in different places. Where no end group is shown, it is not given here.

Columns and labels:
p53 DBD = p53 DBD (Homo sapiens, UniProt P04637); settings: cited from earlier work
[1] = tested on: H1299 cells stably transfected with Mut-p53 (ts) A135V; test: qRT-PCR of p53 target genes (p21, PUMA, Mdm2); format: cell-based; settings: 5 ug/ml, 18 hours, 37° C., relative to non-treated cells; positive control (32° C.) 9-11 fold
Procedure: H1299 cells are p53 null and are widely used for p53 research. H1299 cells stably transfected with Mut-p53 (ts) A135V were used. […] 18 hours later cells were harvested, followed by extraction of RNA, cDNA synthesis and real time PCR analysis. The expression level of 3 representative p53 target genes, p21, PUMA and Mdm2, was examined.
For the in vivo functional screening, several experimental systems were used. One system is based on H1299 cells, which are p53 null and are widely used for p53 research. H1299 cells stably transfected with Mut-p53 (ts) A135V were used. This form of p53 is a temperature sensitive mutant, which has a mutant conformation at 37° C. and a WT conformation at 32° C. […] 18 hours later cells were harvested, followed by extraction of RNA, cDNA synthesis and real time PCR analysis. The expression level of 3 representative p53 target genes was examined; p21, PUMA and Mdm2. Expression of genes in H1299-ts at 37° C. is considered as background level and all results are normalized to it, and also to the GAPDH housekeeping gene. Expression of genes in H1299-ts at 32° C. represents WT p53 conformation and therefore serves as a positive control.
Several tested peptides indeed caused a significant increase in the expression of p21, PUMA and Mdm2. This was the case for pCAP-130, pCAP-135, pCAP-142, pCAP-144 and pCAP-148. […]

[2] = tested on: SKBR3 cells expressing endogenous R175H p53; settings: SKBR3 ShCon cells, 5 ug/ml, 18 hours
Procedure: FIG. 16 is a bar graph illustrating the effect of the indicated peptides on activation of Mut-p53 by measuring transactivation of p53 target genes as determined by qRT-PCR. SKBR3 ShCon cells and SKBR3 Shp53 cells knocked down for p53 expression were used. The cells were plated in 12-well dishes and the indicated peptides were added directly to the medium at a concentration of 5 ug/ml. 18 hours later cells were harvested, followed by qRT-PCR analysis. Expression level of p21, PUMA and Mdm2 was evaluated. FIG. 16 illustrates the relative fold induction of transcription of the tested genes in the various samples relative to their transcription level in non-treated cells. GAPDH mRNA was measured in parallel as a control.
RNA was obtained using Macherey-Nagel NucleoSpin RNA II Kit on cells pellet according to the manufacturer's protocol. Aliquots of 0.4-1 μg were reverse transcribed using Bio-RT 2000 (Bio-Lab) and random hexamer primers. Quantitative real-time polymerase chain reaction (QRT-PCR) was performed on an ABI 7300 instrument (Applied Biosystems) using PerfeCTa SYBR Green FastMix ROX (Quanta). RT-PCR primers used are presented in Table 1 (primers sequences are presented 5′ to 3′).
The tested peptides were further tested for their effect on p53 target gene expression in SKBR3 cells expressing endogenous R175H p53. […] In essence, these cells were plated in 12-well dishes; the indicated peptides were added directly to the medium at a concentration of 5 ug/ml. 18 hours later cells were harvested, followed by qRT-PCR analysis. Expression level of p21, PUMA and Mdm2 was evaluated. Expression of those genes in non-treated cells is considered background and all results were normalized to it, as well as to GAPDH.

[3] = Crystal violet viability assay; format: cell-based; settings: human, shp53 (Mut-p53 knockdown) subline
Excerpt: FIGS. 15A and 15B are bar graphs illustrating the effect of the various indicated peptides on the viability of breast cancer cells expressing different Mut-p53 isoforms, as determined by crystal violet assay. FIG. 15A: MDA-MB-231 cells expressing Mut-p53 with a mutation at position 280 of the DBD. FIG. 15B: SKBR3 cells expressing Mut-p53 with mutation at position 175 within the DBD. The bar graphs in FIGS. 15A and 15B show for each tested peptide the optical density reads at 595 nm, reflecting the number of cells in the plate after treatment, normalized to the non-treated (NT) samples.
Cells were cultured in 96 wells plates with 2500-4000 cells/well in 0.1 ml and incubated overnight at 37° C. in order to adhere to the plate. Serial dilutions of different peptides (0.5 μg/ml) were added in 0.1 ml aliquots and the plates incubated for additional 48 h at 37° C. Then medium was removed and cell lysis was determined by staining the cells with crystal violet (0.5%) in methanol/water (1:4, v/v), 50 μl each well, for 10 min, followed by 3 washes with PBS. Afterwards, 10% acetic acid (50 μl) was added to each well and shaken for 10 min. Then, automatic plate reading was performed at 595 nm.
Experiments using different cancer cell lines expressing endogenously different p53 mutant isoforms were performed. FIGS. 15A and 15B illustrate two representative experiments performed on MDA-MB-231 (FIG. 15A) and SKBR3 (FIG. 15B) breast cancer cells expressing Mut-p53 with mutations at positions 280 or 175, respectively, within the DNA Binding Domain (DBD). To examine the peptides' specificity for Mut-p53, the control used was such cells with a knockdown of Mut-p53 (shp53).

Mut-p53 (R175H p53) = target: T1, Mut-p53 (R175H p53) (Homo sapiens, UniProt P04637, R175H); test: p53/DNA binding ELISA kit (R&D), binding to p53-RE DNA; format: biochemical; settings: H1299-R175H p53 cell extracts, vs background (NT)
T1 construct: a hot spot full length mutant p53 Mut-p53 R175H (R175H p53); expressed in transfected cells; host or cells: H1299 (p53-null) cells stably overexpressing R175H p53; cell extract
Excerpt: A commercial p53/DNA binding kit (R&D) was used, according to manufacturer instructions. Briefly, 96 well plates were coated with anti-p53 antibody overnight. Cell extracts containing p53 were reacted with an oligonucleotide that contains a p53 consensus binding site, labeled with biotin, in the presence or absence (NT) of test peptides. WT p53 is expected to bind this DNA binding site as well as to the antibody coating the test wells of the plate. Excess p53 and oligos are washed away and streptavidin-HRP is used to quantify the amount of oligos in the well, which is proportional to the DNA bound by p53. TMB assay was performed to determine HRP levels (450 nm). The results are presented as relative absorbance (at 450 nm) (Y-Axis) of each tested sample. MCF7 and the H1299-Mut-p53 (ts) A135V cells serve as positive controls for WT p53.
For these experiments, a commercial p53/DNA binding kit of “R&D” (Cat-DYC1355-5 Lot-1273366FA) was used, in accordance with manufacturer guide lines. Briefly, 96 well plates are coated with anti-p53 antibody overnight. Cell extracts containing p53 are reacted with an oligonucleotide that contains a p53 consensus binding site (provided in the kit), labeled with biotin, in the presence or absenc.
e (NT) of test peptides. WT p53 is expected to bind this DNA binding site as well as to the antibody coating the test wells of the plate. Excess p53 and oligos were washed away and streptavidin-HRP was used to quantify the amount of oligos in the well, which is proportional to the DNA bound by p53. TMB assay was performed to determine HRP (ES001-1L-K) levels (450 nm).
To measure the effect of the tested peptides on DNA binding of Mut-p53, a commercial ELISA kit, (R&D Systems DYC1355-5, Lot-1273366FA), was used as a high-throughput assay to quantify p53 activation. This kit uses a 96-well plate format. The kit was used according to manufacturer's instructions. Wells were coated with anti-p53 antibody overnight. Cell extracts containing p53 were reacted with a biotin labeled oligonucleotide containing a p53 consensus binding site (included in the kit). WT p53 is expected to bind this oligo as well as the antibody coating the wells. Excess p53 and oligo were washed away in wash buffer (0.05% Tween 20 in PBS, pH 7.2-7.4; R&D Systems, Catalog #WA126). Then, streptavidin-HRP (R&D Systems, Part 890803, provided in the kit) was added for 15-45 min to quantify the amount of oligo in the well, which is proportional to the DNA bound by p53. If the addition of a peptide to Mut-p53 extracts increases ELISA reading compared to background, this peptide is considered as functionally effective and may be selected for further analysis. […] As with the conformational screening, MCF7 and the H1299-Mut-p53 (ts) A135V cells served as positive controls for WT p53. Extracts were added to the wells coated with αp53-Ab, and after several washing steps, streptavidin-HRP was added for 1 hour, and then plates were washed again and TMB (substrate to HRP) assay was performed.

R175H p53 = target: T2, R175H p53 (Homo sapiens, UniProt P04637, R175H); test: TK-RGC-luc luciferase reporter assay in H1299 p53−/− cells; format: cell-based; settings: peptides added 24 hours after transfection, read at 48 hours
T2 construct: a hot spot full length mutant p53 Mut-p53 R175H (R175H p53); expressed in transfected cells; host or cells: H1299 p53-/- cells, transient transfection
Procedure: (§1) FIG. 12 is a bar graph illustrating the relative luciferase activity (cLuc/gLuc) as measured in the various tested samples. Transient transfection of H1299 p53^−/− cells was performed with plasmids expressing WT p53, R175H p53, R249S p53 or empty vector as control, together with TK-RGC-luc, where luciferase expression is under control of a tandem array of multiple p53-responsive elements. 24 hours after transfection, cells were treated with the test peptides. 48 hours after transfection, a sample of the culture medium was taken for bioluminescence measurements.
(§2) The oligonucleotide (RGC-W) that has the sequence 5′-[…]-3′ (SEQ ID NO:362), and the oligonucleotide mutant RGC oligonucleotide (RGC-M) that has the sequence 5′-[…]-3′ (SEQ ID NO:363), are both derived from Kern et al. (Kern, S. E., et al., Identification of p53 as a sequence-specific DNA-binding protein. Science, 1991. 252(5013): p. 1708-11), and serve as a consensus binding sites for WT p53.
(§3) These motifs were cloned into the KPN and Eco53IK sites in pCLuc Mini-TK 2 Vector (NEB, Cat No. N0324S ). The Luciferase construct was used to assess transcriptional activation of p53 in test cells.
(§4) H1299 p53-null cells were cultured overnight and then transfected with the luciferase constructs using MaxFect Transfection Agent (Mediatech) according to the manufacturer's protocol. Prior to the transfection, cell medium was exchanged to OPTI-MEM.
(§5) The cells were treated with different peptides 24 hours after transfection. After additional 24 hours, growth medium was collected to 96 black plates: 40 μl for Cluc assay, and 20 μl for Gluc assay. Assay was performed using Turner BioSystems Modulus Microplate. Value was calculated by Cluc/gluc/NT (non-treated cells).
(§6) As additional screening strategy used to identify reactivating peptides was performed in vivo and is based on a reporter gene assay. It measures p53 transcriptional activity by quantifying the activity of a reporter gene, placed under the control of a promoter containing 17 repeats of a p53 consensus binding site (RGC). The luciferase assay is performed on living cells and therefore provides an indication on the effect of test peptides on Mut-p53 function in the context of intact cells.
(§7) For the in vivo luciferase based screening, H1299 cells were used. Transient transfection of these p53^−/− cells was performed with vectors expressing WT p53, R175H p53, R249S p53 or empty vector as control (Suad, O., et al., Structural basis of restoring sequence-specific DNA binding and transactivation to mutant p53 by suppressor mutations. J. Mol. Biol., 2009. 385(1): p. 249-65). Cells were also co-transfected with TK-RGC-luc (CAT. No. NEB, N0324S). 24 hours after transfection, cells were treated with the test peptides. […]

R249S p53 = target: T3, R249S p53 (Homo sapiens, UniProt P04637, R249S); test: as above; format: cell-based; settings: peptides added 24 hours after transfection, read at 48 hours
T3 construct: expressed in transfected cells; host or cells: H1299 p53-/- cells, transient transfection
Procedure: as §1, §2, §3, §4, §5, §6, §7

## COc1ccc(/C=C/c2nc(NCCCN(C)C)c3ccccc3n2)cc1 [CP-31398]
p53 DBD
  binding to the p53 DBD by NMR: failed to detect any binding

## GGGGGGGGGRRRRRRR [pCAP-76, negative control peptide]
[1]
  induction of transcription of p53 target genes p21, PUMA and Mdm2: did not cause induction of p53 targets

## IRGRIIRRRRRRRRRR [pCAP-155]
[2]
  transactivation of p53 target genes (p21, PUMA, Mdm2): among the highest transactivation levels
[3]; MDA-MB-231 shp53 (Mut-p53 knockdown) breast cancer cells, read-out: reduction in viability, MDA-MB-231 shp53 cells
  cytotoxicity at 48 h: 30 to 40%
[3]; SKBR3 shp53 (Mut-p53 knockdown) breast cancer cells, read-out: reduction in viability, SKBR3 shp53 cells
  cytotoxicity at 48 h: 30 to 40%

## SFILFIRRGRLGRRRRRRRRR [pCAP-144]
[2]
  transactivation of p53 target genes (p21, PUMA, Mdm2): among the highest transactivation levels

## TRILCIVRKKRRQRRRRGDR [pCAP-75]
Mut-p53 (R175H p53)
  binding of H1299-R175H p53 extracts to p53-RE DNA: elevate the binding of H1299-R175H p53 extracts to p53-RE DNA
R175H p53
  transcription from TK-RGC-luc in the presence of R175H p53: induce transcription from TK-RGC-luc
R249S p53
  transcription from TK-RGC-luc in the presence of R249S p53: induce transcription from TK-RGC-luc

## WNHHHSTPHPRRRRRRRRRR [pCAP-148]
[2]
  transactivation of p53 target genes (p21, PUMA, Mdm2): among the highest transactivation levels
